Numbered stars: 1 amine (or outer) side, 2 acyl side, 3 side chain; on linkers, the order of the positions; unused ones are H or OH. Bridge positions count the residues as written; N and C are the ends. Square brackets hold non-standard residues; d marks the D form. Peptide text beside a SMILES is read from it. * marks the point of attachment. X32 = O=C(O)CN1CCN(CC(=O)O)CCN(CC(=O)NCc2cc(C[*:1])cc(C[*:2])c2)CCN(CC(=O)O)CC1; X12 = O=C(O)CN1CCN(CC(=O)O)CCN(CC(=O)NCCCOCCOCCOCCCN*)CCN(CC(=O)O)CC1; DOTA = O=C(O)CN1CCN(CC(=O)O)CCN(CC(=O)*)CCN(CC(=O)O)CC1; Oic = O=C(O)[C@@H]1C[C@@H]2CCCC[C@@H]2N1; mXylylene = c1cc(C[*:1])cc(C[*:2])c1; NMeF = CN[C@@H](Cc1ccccc1)C(=O)O; X29 = O=C(CN1CCN([*:1])CC1)[*:2]; NMeE = CN[C@@H](CCC(=O)O)C(=O)O; 2Thi = N[C@@H](Cc1cccs1)C(=O)O; Suc = O=C(CCC(=O)[*:2])[*:1]; Nle = CCCC[C@H](N)C(=O)O; X2 = NCCNCC(CNCCN)C(=O)*; Hexanoyl = CCCCCC(=O)*; AEEA = NCCOCCOCC(=O)O; βAla = NCCC(=O)O
Experiments:
[1] = molecular target: T1, FAP-expressing human WI-38 fibroblasts (Homo sapiens, UniProt Q12884); experiment: Competitive FACS binding assay
T1 construct: FAP-expressing human WI-38 fibroblasts (ECACC) were cultured in EMEM; host or cells: WI-38 human fibroblasts
T1 sequence (Q12884 whole entry): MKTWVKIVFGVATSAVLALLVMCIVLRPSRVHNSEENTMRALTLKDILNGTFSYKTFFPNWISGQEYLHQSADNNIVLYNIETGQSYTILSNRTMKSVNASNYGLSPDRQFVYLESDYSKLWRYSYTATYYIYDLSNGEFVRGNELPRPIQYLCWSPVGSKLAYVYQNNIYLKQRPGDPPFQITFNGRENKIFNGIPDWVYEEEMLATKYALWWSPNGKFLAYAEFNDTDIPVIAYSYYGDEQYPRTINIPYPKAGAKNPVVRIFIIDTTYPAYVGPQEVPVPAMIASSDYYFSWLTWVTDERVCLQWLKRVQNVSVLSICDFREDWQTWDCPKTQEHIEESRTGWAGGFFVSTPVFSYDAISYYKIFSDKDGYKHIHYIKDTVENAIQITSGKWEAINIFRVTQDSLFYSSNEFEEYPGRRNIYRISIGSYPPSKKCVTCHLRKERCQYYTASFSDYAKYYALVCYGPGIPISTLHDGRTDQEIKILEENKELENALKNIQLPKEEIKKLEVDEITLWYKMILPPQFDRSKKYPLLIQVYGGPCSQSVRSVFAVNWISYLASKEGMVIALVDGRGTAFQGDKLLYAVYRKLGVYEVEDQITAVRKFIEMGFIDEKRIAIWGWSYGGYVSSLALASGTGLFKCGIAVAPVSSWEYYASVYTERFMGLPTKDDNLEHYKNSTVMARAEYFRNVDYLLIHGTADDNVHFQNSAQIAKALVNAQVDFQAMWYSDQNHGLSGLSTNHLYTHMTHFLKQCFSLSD
Protocol: Cells were analyzed in an Attune NxT flow cytometer. […] […].
Cells were analyzed in an Attune NxT flow cytometer. […]

[2] = molecular target: Human recombinant FAP (Homo sapiens, UniProt Q12884); experiment: FRET-based FAP protease activity assay; assay type: biochemical; parameters: purchased R&D systems 3715-SE
Sequence of Human recombinant FAP (Q12884 whole entry): as above

[3] = pIC50 Category (Activity), FRET-based FAP protease activity assay, recombinant human FAP, 37° C.
[4] = pIC50 Category (Activity), FRET-peptide substrate, 37° C.
[5] = pIC50 Category (activity), Recombinant human FAP

IC50 [1] [nM]	IC50 [2, 3] [nM]	IC50 [2, 4] [nM]	IC50 ([2]; pIC50 (highest activity categories), text on Table 9 categories (FACS binding and FAP activity assay)) [nM]	SMILES	IC50 [2, 5] [nM]
> 1000	> 1000	–	–	CC(=O)N[C@@H](CCCC(=O)O)C(=O)N[C@H]1CSCc2cccc(c2)CSC[C@@H](C(N)=O)NC(=O)[C@H](Cc2ccccc2)NC(=O)[C@H](CCC(N)=O)NC(=O)[C@H]([C@@H](C)O)NC(=O)[C@@H]2CCCN2C(=O)[C@@H]2CCCN2C1=O [3BP-3764, Ac-Aad-[Cys(3MeBn)-Pro-Pro-Thr-Gln-Phe-Cys]-NH2]	–
< 10	–	< 10	–	CCCC[C@H](NC(=O)CCC(=O)NCCCOCCOCCOCCCNC(=O)CN1CCN(CC(=O)O)CCN(CC(=O)O)CCN(CC(=O)O)CC1)C(=O)N[C@H]1CSCc2cccc(c2)CSC[C@@H](C(=O)N[C@@H](CC(=O)O)C(=O)NCCCOCCOCCOCCCNC(=O)CCC(=O)N[C@@H](CCCCNC(=O)CN2CCN(CC(=O)O)CCN(CC(=O)O)CCN(CC(=O)O)CC2)C(N)=O)NC(=O)[C@H](Cc2ccccc2)NC(=O)[C@H](CCC(N)=O)NC(=O)[C@H]([C@@H](C)O)NC(=O)[C@@H]2CCCN2C(=O)[C@@H]2CCCN2C1=O [3BP-4393, DOTA-Ttds-Nle-[Cys(3MeBn)-Pro-Pro-Thr-Gln-Phe-Cys]-Asp-Ttds-Lys(DOTA)-NH2]	–
< 10	< 10	–	–	CSCC[C@H](NC(C)=O)C(=O)N[C@@H]1CSCc2cccc(c2)CSC[C@@H](C(=O)N[C@@H](CC(=O)O)C(=O)N[C@@H](Cc2c[nH]cn2)C(=O)N[C@@H](Cc2ccccc2)C(=O)N[C@@H](CCCNC(=N)N)C(=O)N[C@@H](CC(=O)O)C(N)=O)NC(=O)[C@H](Cc2ccccc2)NC(=O)[C@H](CCC(=O)O)NC(=O)[C@H]([C@@H](C)O)NC(=O)[C@@H]2CCCN2C(=O)[C@@H]2CCCN2C1=O [3BP-3175, Ac-Met-[cys(3MeBn)-Pro-Pro-Thr-Glu-Phe-Cys]-Asp-His-Phe-Arg-Asp-NH2] (Ac-M[dC]PPTEFCDHFRD-NH2; linker 2-8 via mXylylene)	–
100 to 794	100 to 794	–	–	C[C@@H](O)[C@@H]1NC(=O)[C@@H]2CCCN2C(=O)[C@@H]2CCCN2C(=O)[C@@H](NC(=O)COCCOCCNC(=O)CN2CCN(CC(=O)O)CCN(CC(=O)O)CCN(CC(=O)O)CC2)CSCc2cccc(c2)CSC[C@@H](C(=O)N[C@@H](CC(=O)O)C(=O)N[C@@H](Cc2c[nH]cn2)C(=O)N(C)[C@@H](Cc2ccccc2)C(=O)N[C@@H](CCCNC(=N)N)C(=O)N[C@@H](CC(=O)O)C(N)=O)NC(=O)[C@H](Cc2ccccc2)NC(=O)[C@H](CCC(=O)O)NC1=O [3BP-3267, DOTA-O2Oc-[Cys(3MeBn)-Pro-Pro-Thr-Glu-Phe-Cys]-Asp-His-Nmf-Arg-Asp-NH2] ({DOTA-AEEA}-CPPTEFCDH[NMeF]RD-NH2; linker 1-7 via mXylylene)	–
< 10	< 10	–	–	CSCC[C@H](NC(C)=O)C(=O)N[C@H]1CSCc2cccc(c2)CSC[C@@H](C(=O)N[C@@H](CC(=O)O)C(=O)N[C@@H](Cc2c[nH]cn2)C(=O)N[C@@H](Cc2ccccc2)C(=O)N[C@@H](CCCNC(=N)N)C(=O)N[C@@H](CC(=O)O)C(N)=O)NC(=O)[C@H](Cc2cccs2)NC(=O)[C@H](CCC(=O)O)NC(=O)[C@H]([C@@H](C)O)NC(=O)[C@@H]2CCCN2C(=O)[C@@H]2CCCN2C1=O [3BP-3193, Ac-Met-[Cys(3MeBn)-Pro-Pro-Thr-Glu-Thi-Cys]-Asp-His-Phe-Arg-Asp-NH2] (Ac-MCPPTE[2Thi]CDHFRD-NH2; linker 2-8 via mXylylene)	–
< 10	–	–	–	CCCCCC(=O)N[C@H]1CSCc2cc(CSCCNC(=O)CN3CCN(CC(=O)O)CCN(CC(N)=O)CCN(CC(=O)O)CC3)cc(c2)CSCC(C(=O)O)NC(=O)[C@H](Cc2ccccc2)NC(=O)[C@H](CCC(N)=O)NC(=O)[C@H]([C@@H](C)O)NC(=O)[C@@H]2CCCN2C(=O)[C@@H]2CCCN2C1=O (stereo partly drawn) [3BP-5288, Hex-[Cys(tMeBn(LSC-AET))-Pro-Pro-Thr-Gln-Phe-Cys]-OH]	< 10
10 to 79.4	10 to 79.4	–	–	CCCCCC(=O)N[C@H]1CSCc2cc(CNC(=O)CN3CCN(CC(=O)O)CCN(CC(=O)O)CCN(CC(=O)O)CC3)cc(c2)CSC[C@@H](C(=O)N[C@@H](CC(=O)O)C(N)=O)NC(=O)[C@H](Cc2ccccc2)NC(=O)[C@H](CCC(N)=O)NC(=O)[C@H]([C@@H](C)O)NC(=O)[C@@H]2CCCN2C(=O)[C@@H]2CCCN2C1=O [3BP-3556, Hex-[Cys(tMeBn(DOTA-NH))-Pro-Pro-Thr-Gln-Phe-Cys]-Asp-NH2] (Hexanoyl-CPPTQFCD-NH2; linker 1-7 via X32)	–
10 to 79.4	–	10 to 79.4	–	C[C@@H](O)[C@@H]1NC(=O)[C@@H]2CCCN2C(=O)[C@@H]2CCCN2C(=O)[C@@H](NC(=O)NC2CCCC2)CSCc2cc(CSCCNC(=O)CN3CCN(CC(=O)O)CCN(CC(=O)O)CCN(CC(=O)O)CC3)cc(c2)CSC[C@@H](C(=O)O)NC(=O)[C@H](Cc2ccccc2)NC(=O)[C@H](CCC(N)=O)NC1=O [3BP-3917, Cpentyl-CAyl-[Cys(tMeBn(DOTA-AET))-Pro-Pro-Thr-Gln-Phe-Cys]-OH]	–
100 to 794	100 to 794	–	–	CSCC[C@H](NC(C)=O)C(=O)N[C@H]1CSCc2cccc(c2)CSC[C@@H](C(=O)N[C@@H](CC(=O)O)C(=O)N[C@@H](Cc2c[nH]cn2)C(=O)N[C@@H](Cc2ccccc2)C(=O)N[C@@H](CCCNC(=N)N)C(=O)N[C@@H](CC(=O)O)C(N)=O)NC(=O)[C@H](Cc2ccccc2)NC(=O)[C@H](CCC(=O)O)NC(=O)[C@H]([C@@H](C)O)NC(=O)[C@@H]2C[C@@H]3CCCC[C@@H]3N2C(=O)[C@@H]2CCCN2C1=O [3BP-3217, Ac-Met-[Cys(3MeBn)-Pro-Oic-Thr-Glu-Phe-Cys]-Asp-His-Phe-Arg-Asp-NH2] (Ac-MCP[Oic]TEFCDHFRD-NH2; linker 2-8 via mXylylene)	–
< 10	< 10	–	< 10	CSCC[C@H](NC(=O)CCC(=O)NCCCOCCOCCOCCCNC(=O)CN1CCN(CC(=O)O)CCN(CC(=O)O)CCN(CC(=O)O)CC1)C(=O)N[C@H]1CSCc2cccc(c2)CSC[C@@H](C(=O)N[C@@H](CC(=O)O)C(=O)N[C@@H](Cc2c[nH]cn2)C(=O)N[C@@H](Cc2ccccc2)C(=O)N[C@@H](CCCNC(=N)N)C(=O)N[C@@H](CC(=O)O)C(N)=O)NC(=O)[C@H](Cc2ccccc2)NC(=O)[C@H](CCC(=O)O)NC(=O)[C@H]([C@@H](C)O)NC(=O)[C@@H]2CCCN2C(=O)[C@@H]2CCCN2C1=O [3BP-3169, DOTA-Ttds-Met-[Cys(3MeBn)-Pro-Pro-Thr-Glu-Phe-Cys]-Asp-His-Phe-Arg-Asp-NH2] ({X12-Suc}-MCPPTEFCDHFRD-NH2; linker 2-8 via mXylylene)	–
> 1000	> 1000	–	–	CCCCCC(=O)N[C@H]1CSCc2cccc(c2)CSC[C@@H](C(N)=O)NC(=O)[C@H](Cc2ccccc2)NC(=O)[C@H](CCC(=O)O)N(C)C(=O)[C@H]([C@@H](C)O)NC(=O)[C@@H]2CCCN2C(=O)[C@@H]2CCCN2C1=O [3BP-3357, Hex-[Cys(3MeBn)-Pro-Pro-Thr-Nme-Phe-Cys]-NH2] (Hexanoyl-CPPT[NMeE]FC-NH2; linker 1-7 via mXylylene)	–

SMILES	IC50 [1] [nM]	IC50 [2, 3] [nM]	IC50 [2, 4] [nM]	IC50 ([2]; pIC50 (highest activity categories), text on Table 9 categories (FACS binding and FAP activity assay)) [nM]	IC50 [2, 5] [nM]
CCCC[C@H](NC(=O)CCNC(=O)CN1CCN(C(=O)C(CNCCN)CNCCN)CC1)C(=O)N[C@H]1CSCc2cccc(c2)CSC[C@@H](C(=O)O)NC(=O)[C@H](Cc2ccccc2)NC(=O)[C@H](CCC(=O)O)NC(=O)[C@H]([C@@H](C)O)NC(=O)[C@@H]2CCCN2C(=O)[C@@H]2CCCN2C1=O [3BP-4783, N4Ac-PPAc-Bal--Nle-[C(3MeBn)-PPTEFC]-OH] (X2-[X29][βAla][Nle]CPPTEFC-OH; linker 4-10 via mXylylene)	> 1000	–	–	–	> 1000
